# Data published in patent US20230133393A1, “DIBORIDE MICROPATTERNED SURFACES FOR CELL CULTURE” (University of Houston System, priority 2020, published 2023).
# “Also recorded” adds a separate entry of the source.
# System: SKOV3 cells
# Assay: Effect of SAHA on SKOV3 3D aggregates and cellular bridges cultured on Si—TiB2 substrate
# Format: cell-based
# Protocol: Cell culture of ovarian cancer cell lines: SKOV3 and OVCAR3 cell lines were cultured in Cancer Media (CM) ([…] with glutamine (02-0205 VWR Life Science), 1% antibiotics (Sigma-Aldrich A5955), and 0.1% insulin (ABM TM053)). For cell culture on substrates CM was supplemented with 10 ng/mL human FGF2 (Sigma-Aldrich F0291)+1% heparin (Sigma-Aldrich H3393). Cells were cultured in a humidified incubator at 37° C. with 5% CO2.
# The inventors used their Si-diborides substrates (described in [200]) for culture of SKOV3 (ATCC® HTB-77™) cancer cells of high invasive potential. Cells were seeded on Si—TiB2 substrates (2×2 cm) at a density of 600/mm^2, and each substrate will be placed in a well of a 24-well dish and cultured in RPMI 1640 with glutamine, 20% FBS, 1% antibiotics, 0.01 mg/mL Insulin, 10 ng/ml FGF2 and 1% heparin 1 over 10 days to establish a monolayer (days 1-3) or allowed to form 3D aggregates (days 4-10). A 2×2 cm substrate can accommodate at least 500, 300 μm circle patterns (aka 500 3D aggregates of ˜150-200 μm diameter and 60-80 μm thickness). Based on preliminary data, the rate of “cellular bridge” formation is 13%/substrate or 50%/aggregate. As shown in FIGS. 9A-C, FIGS. 10A-C and FIG. 11A-B, highly invasive SKOV3 begin as monolayers and then self-assemble to form 3D aggregates. Importantly, the inventors are able to control dynamics of aggregation and size and number of aggregates by tuning pattern geometry and cell seeding density. 3D aggregates of static (compact aggregates without any migratory sequalae) and migratory phenotype (identified via cells migrating away from an aggregate and establishing connections with neighboring aggregates; see FIGS. 12A-B) can be identified post-culturing at day 2, day 4, day 6 and day 8. […] Thus, these capture time points have data on cell monolayers (Day 2), self-assembly (Days 3-4) and compact 3D aggregates (Days 5-8). Migratory 3D aggregate phenotypes are visible at Days 5 with maximum numbers of cellular bridges across aggregates seen at Days 6-7. […]
compound,measurement,setting,value
"O=C(CCCCCCC(=O)Nc1ccccc1)NO [SAHA, suberoylanilide hydroxamic acid]",effect on size of 3D aggregates,"3 μM SAHA, treatment on day 7 post-seeding",reduce the size of 3D aggregates
same,effect on cellular bridges (invading multicellular microstructures),"3 μM SAHA, treatment on day 7 post-seeding, imaged Day 9",disassociates invading multicellular microstructures; also recorded: loss of cellular bridges
same,reduction in size (aggregate depth) post-treatment with SAHA,"SKOV3 3D aggregates on Si—TiB2, treated day 7 for 48 hours, compared to controls, mean±SEM, n=3, p<0.001",~50%
